Data reported in US7964531B2, “3-phenoxy-4-pyridazinol derivatives and herbicidal composition containing the same” (Mitsui Chemicals Agro, Inc., priority 2001, dated 2011).

Experiments:
Assay type in all cases: in vivo
Settings in all cases: wettable powder applied 3 days after transplanting, judged after 25 days
Cyperus serotinus = test: Test Example 1: herbicidal effects, paddy-field pot test
Procedure, shortened: (§1)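 First, paddy soil was potted and seeded at the surface layer with non-dormant weed seeds; germinated Cyperus serotinus tubers were planted and 2.2-leaf rice transplanted. Three days later, diluted wettable powder was applied under flooding. Inhibition was rated 0–5 after 25 days.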

Scirpus joncoides = test: as above
Procedure, shortened: as §1

[1] = tested on: annual broad-leaved weeds (Lindernia spp., Rotala indica); test: as above
Procedure, shortened: as §1

[2] = tested on: barnyardgrass (Echinochloa oryzicola Vasing.); test: as above
Procedure, shortened: as §1

[3] = tested on: transplanted paddy-field rice; test: Test Example 1: crop injury against transplanted paddy-field rice
Procedure, shortened: as §1

Structure (SMILES) | Herbicidal effects Cyperus serotinus (Cyperus serotinus; chemical dosage 10 g/a) | Herbicidal effects Cyperus serotinus (Cyperus serotinus; chemical dosage 20 g/a) | Herbicidal effects Scirpus joncoides (Scirpus joncoides; chemical dosage 10 g/a) | Herbicidal effects Scirpus joncoides (Scirpus joncoides; chemical dosage 20 g/a) | Herbicidal effects Broad leaf ([1]; chemical dosage 10 g/a) | Herbicidal effects Broad leaf ([1]; chemical dosage 20 g/a) | Herbicidal effects Barnyard grass ([2]; chemical dosage 10 g/a) | Herbicidal effects Barnyard grass ([2]; chemical dosage 20 g/a) | Crop injury against transplanted rice ([3]; chemical dosage 10 g/a) | Crop injury against transplanted rice ([3]; chemical dosage 20 g/a) | Herbicidal effects Cyperus serotinus (Cyperus serotinus; chemical dosage 12.5 g/a) | Herbicidal effects Cyperus serotinus (Cyperus serotinus; chemical dosage 25 g/a) | Herbicidal effects Scirpus joncoides (Scirpus joncoides; chemical dosage 12.5 g/a) | Herbicidal effects Scirpus joncoides (Scirpus joncoides; chemical dosage 25 g/a) | Herbicidal effects Broad leaf ([1]; chemical dosage 12.5 g/a) | Herbicidal effects Broad leaf ([1]; chemical dosage 25 g/a) | Herbicidal effects Barnyard grass ([2]; chemical dosage 12.5 g/a) | Herbicidal effects Barnyard grass ([2]; chemical dosage 25 g/a) | Crop injury against transplanted rice ([3]; chemical dosage 12.5 g/a) | Crop injury against transplanted rice ([3]; chemical dosage 25 g/a)
O=S(=O)(Oc1cc(Cl)nnc1Oc1ccccc1C1CC1)c1ccccc1 [Example 365] | 5 (Growth inhibition rate; 91 to 100%) | 5 (Growth inhibition rate; 91 to 100%) | 4 (Growth inhibition rate; 71 to 90%) | 5 (Growth inhibition rate; 91 to 100%) | 5 (Growth inhibition rate; 91 to 100%) | 5 (Growth inhibition rate; 91 to 100%) | 2 (Growth inhibition rate; 31 to 50%) | 3 (Growth inhibition rate; 51 to 70%) | 0 (Growth inhibition rate; 0 to 10%) | 0 (Growth inhibition rate; 0 to 10%) |  |  |  |  |  |  |  |  |  | 
Cc1cc(Oc2nnc(Cl)cc2O)cc(C(C)C)c1 [Example 282] |  |  |  |  |  |  |  |  |  |  | 4 (Growth inhibition rate; 71 to 90%) | 5 (Growth inhibition rate; 91 to 100%) | 3 (Growth inhibition rate; 51 to 70%) | 4 (Growth inhibition rate; 71 to 90%) | 5 (Growth inhibition rate; 91 to 100%) | 5 (Growth inhibition rate; 91 to 100%) | 0 (Growth inhibition rate; 0 to 10%) | 0 (Growth inhibition rate; 0 to 10%) | 0 (Growth inhibition rate; 0 to 10%) | 0 (Growth inhibition rate; 0 to 10%)
CC1CC1c1ccccc1Oc1nnc(Cl)cc1O (stereo not shown) [Example 72] | 4 (Growth inhibition rate; 71 to 90%) | 5 (Growth inhibition rate; 91 to 100%) | 5 (Growth inhibition rate; 91 to 100%) | 5 (Growth inhibition rate; 91 to 100%) | 5 (Growth inhibition rate; 91 to 100%) | 5 (Growth inhibition rate; 91 to 100%) | 3 (Growth inhibition rate; 51 to 70%) | 3 (Growth inhibition rate; 51 to 70%) | 0 (Growth inhibition rate; 0 to 10%) | 0 (Growth inhibition rate; 0 to 10%) |  |  |  |  |  |  |  |  |  | 
COC(=O)Oc1cc(Cl)nnc1Oc1ccccc1C1CC1 [Example 345] | 5 (Growth inhibition rate; 91 to 100%) | 5 (Growth inhibition rate; 91 to 100%) | 5 (Growth inhibition rate; 91 to 100%) | 5 (Growth inhibition rate; 91 to 100%) | 5 (Growth inhibition rate; 91 to 100%) | 5 (Growth inhibition rate; 91 to 100%) | 3 (Growth inhibition rate; 51 to 70%) | 4 (Growth inhibition rate; 71 to 90%) | 0 (Growth inhibition rate; 0 to 10%) | 0 (Growth inhibition rate; 0 to 10%) |  |  |  |  |  |  |  |  |  | 
CC(C)Oc1ccccc1Oc1nnc(Cl)cc1O [Example 123] | 4 (Growth inhibition rate; 71 to 90%) | 5 (Growth inhibition rate; 91 to 100%) | 3 (Growth inhibition rate; 51 to 70%) | 4 (Growth inhibition rate; 71 to 90%) | 5 (Growth inhibition rate; 91 to 100%) | 5 (Growth inhibition rate; 91 to 100%) | 0 (Growth inhibition rate; 0 to 10%) | 1 (Growth inhibition rate; 11 to 30%) | 0 (Growth inhibition rate; 0 to 10%) | 0 (Growth inhibition rate; 0 to 10%) |  |  |  |  |  |  |  |  |  | 
COc1cccc(F)c1Oc1nnc(Cl)cc1O [Example 239] |  | 4 (Growth inhibition rate; 71 to 90%) |  | 5 (Growth inhibition rate; 91 to 100%) |  | 5 (Growth inhibition rate; 91 to 100%) |  | 0 (Growth inhibition rate; 0 to 10%) |  | 0 (Growth inhibition rate; 0 to 10%) |  |  |  |  |  |  |  |  |  | 
Cc1ccc(C2CC2)c(Oc2nnc(Cl)cc2O)c1C [Example 296] | 5 (Growth inhibition rate; 91 to 100%) | 5 (Growth inhibition rate; 91 to 100%) | 5 (Growth inhibition rate; 91 to 100%) | 5 (Growth inhibition rate; 91 to 100%) | 5 (Growth inhibition rate; 91 to 100%) | 5 (Growth inhibition rate; 91 to 100%) | 1 (Growth inhibition rate; 11 to 30%) | 2 (Growth inhibition rate; 31 to 50%) | 0 (Growth inhibition rate; 0 to 10%) | 0 (Growth inhibition rate; 0 to 10%) |  |  |  |  |  |  |  |  |  | 
Oc1cc(Cl)nnc1Oc1ccccc1I [Example 52] | 5 (Growth inhibition rate; 91 to 100%) | 5 (Growth inhibition rate; 91 to 100%) | 5 (Growth inhibition rate; 91 to 100%) | 5 (Growth inhibition rate; 91 to 100%) | 5 (Growth inhibition rate; 91 to 100%) | 5 (Growth inhibition rate; 91 to 100%) | 3 (Growth inhibition rate; 51 to 70%) | 4 (Growth inhibition rate; 71 to 90%) | 0 (Growth inhibition rate; 0 to 10%) | 0 (Growth inhibition rate; 0 to 10%) |  |  |  |  |  |  |  |  |  | 
Cc1cc(C)c(Oc2nnc(Cl)cc2O)c(C)c1 [Example 317] |  |  |  |  |  |  |  |  |  |  | 5 (Growth inhibition rate; 91 to 100%) | 5 (Growth inhibition rate; 91 to 100%) | 2 (Growth inhibition rate; 31 to 50%) | 3 (Growth inhibition rate; 51 to 70%) | 4 (Growth inhibition rate; 71 to 90%) | 5 (Growth inhibition rate; 91 to 100%) | 0 (Growth inhibition rate; 0 to 10%) | 0 (Growth inhibition rate; 0 to 10%) | 0 (Growth inhibition rate; 0 to 10%) | 1 (Growth inhibition rate; 11 to 30%)
Cc1cccc(C)c1Oc1nnc(Cl)cc1O [Example 21] | 5 (Growth inhibition rate; 91 to 100%) |  | 5 (Growth inhibition rate; 91 to 100%) |  | 5 (Growth inhibition rate; 91 to 100%) |  | 2 (Growth inhibition rate; 31 to 50%) |  | 0 (Growth inhibition rate; 0 to 10%) |  |  |  |  |  |  |  |  |  |  | 
Oc1cc(Cl)nnc1Oc1ccccc1C1CCCC1 [Example 88] |  |  |  |  |  |  |  |  |  |  | 5 (Growth inhibition rate; 91 to 100%) | 5 (Growth inhibition rate; 91 to 100%) | 4 (Growth inhibition rate; 71 to 90%) | 5 (Growth inhibition rate; 91 to 100%) | 4 (Growth inhibition rate; 71 to 90%) | 5 (Growth inhibition rate; 91 to 100%) | 0 (Growth inhibition rate; 0 to 10%) | 0 (Growth inhibition rate; 0 to 10%) | 0 (Growth inhibition rate; 0 to 10%) | 0 (Growth inhibition rate; 0 to 10%)
